Experimental data reported in US12465610B2, “Compounds and methods for the treatment of PKR-associated diseases” (Board of Regents, The University of Texas System, priority 2019, dated 2025).

Tests used:
prion degradation = assay type: cell-based, human; conditions: HeLa cells, Ad-Prion 48 hours, 1 mM
HeLaPKRkd cells [1] = assay: Microscopic analysis of morphologic changes; assay type: cell-based, human
From the text: (§1) Anticancer effects of PKR-targeting compounds depend on PKR expression status: To identify compounds that can target lysosomes in PKR-positive cells or MVBs/exosomes in PKR-negative cells, the 10,000-compound ChemBridge library was screened for compounds with different effects on the growth of HeLa and HeLaPKRkd cells. […] SRB assays were next used to determine cell viability after treatment with Pac 1 or Pac 2.
Identification of PKR-associated compounds and cytotoxicity studies: The library of 10,000 compounds was screened for those with different effects on the growth of HeLa and HeLaPKRkd cells. For this screening, both HeLa and HeLaPKRkd cells were seeded in 96-well plates in parallel and treated with each compound at a final concentration of 5 μg/mL. Cells treated with dimethyl sulfoxide (final concentration, 1%) were used as controls. Treated cells were observed under a microscope to detect morphologic changes, and their viability was determined using SRB assays 2 and 3 days after treatment. The compounds initially observed to have different effects on HeLa and HeLaPKRkd cells were subjected to two confirmatory screenings.

[2] = test system: lysosomes and MVBs/exosomes; assay: Transmission electron microscopy (TEM) of treated cells; assay type: cell-based, human
AP-1/2/3 complexes = assay: Western blot of AP-1, AP-2 and AP-3 complex-associated proteins; assay type: cell-based, human; conditions: H1299 and MDA-MB-231 cells, 72 hours after treatment
From the text: Western blotting was next used to evaluate proteins known to be involved in AP-1/2/3 complexes in lung (H1299) and breast (MDA-MB-231) cancer cells after treatment with Pac 1 or Pac 2. […] AP-1 and AP-2 mediate protein sorting in the endosome, trans-Golgi network, and plasma membrane. […] The impact of Pac 1 was then investigated on lysosome function by staining cells with the acidophilic dye LysoTracker Red.

Toxicity in mice = conditions: 50 mg/kg intravenously daily for 7 days
[3] = test system: normal cells (HBE, human mammary epithelial cells); assay: SRB cell viability assay, normal cells; assay type: cell-based; conditions: 72 hours after treatment, HBE and human mammary epithelial cells
Method: The effects of Pac 1 and Pac 2 were next examined on PKR protein expression in HeLa cells using Western blot analysis. […] No reduction in normal cell viability was observed after treatment with Pac 1 or Pac 2 (FIGS. 5F and G). […] Because most of the cancer cell lines that were tested were more sensitive to Pac 1 than to Pac 2, Pac 1 was further investigated.
(§2) Cell viability assays: For SRB assays, cells (2-8×10^3/well in 100 μL of culture medium) were seeded in 96-well flat-bottomed plates and treated the next day with compounds at the indicated concentrations. After the indicated treatments, cells were fixed with trichloroacetic acid. The protein was stained with SRB, and the optical density at 570 nm was determined. Relative cell viability was calculated by setting the viability rate of the control cells (exposed only to dimethyl sulfoxide) at 100% and comparing the viability of the treated cells with that of the controls. The experiments were performed at least three times for each cell line. The viability of leukemia cell lines was determined by using a 3-(4,5-dimethylthiazol-2-yl)-2,5-diphenyltetrazolium bromide assay.
(§3) For the SRB assay, cells (2-8×10^3/well in 100 μL of culture medium) were seeded in 96-well flat-bottomed plates and treated the next day with compounds at the indicated concentrations. […] The cells were stained using SRB, and the optical density at 570 nm was determined. […]

HeLaPKRkd cells [4] = assay: SRB cell viability assay; assay type: cell-based, human; conditions: 72 hours after treatment
Method: as §1, §2
(§4) Identification of PKR-associated compounds and cytotoxicity studies: The library of 10,000 compounds was screened for those with different effects on the growth of HeLa and HeLaPKRkd cells. […] Treated cells were observed under a microscope to detect morphologic changes, and their viability was determined using SRB assays 2 and 3 days after treatment. […]
as §3, with “determined. Relative cell viability was determined by setting the viability of the control cells (exposed only to dimethyl sulfoxide) at 100% and comparing their viability with that of the treated cells.” for “determined.”

HeLa cells = assay: SRB cell viability assay; assay type: cell-based, human; conditions: 72 hours after treatment
Method: as §1, §2, §4
as §3, with “determined. Relative cell viability was determined by setting the viability of the control cells (exposed only to dimethyl sulfoxide) at 100% and comparing their viability with that of the treated cells.” for “determined.”

SMILES | prion degradation (prion degradation) | growth of HeLaPKRkd cells by microscopy (HeLaPKRkd cells [1]) | lysosomal exocytosis by TEM ([2]; HeLa cells) | lysosomes and MVBs/exosomes by TEM ([2]; HeLaPKRkd cells) | expression of proteins associated with AP-1 (Rab7α, HSC70, AP-1γ) or AP-2 (AP-2α) (AP-1/2/3 complexes) | blood chemistry: aspartate aminotransferase, SGOT, SGPT, alkaline phosphatase, creatine kinase, lactate dehydrogenase levels (Toxicity in mice) | histopathologic examination of major organs (Toxicity in mice; heart, lungs, liver, kidneys, pancreas, spleen) | normal cell viability [3] | viability of HeLaPKRkd cells (HeLaPKRkd cells [4]) | viability of HeLa cells (HeLa cells)
Cn1cnc(N)c2ncnc1-2 [Pac 3MA, 3-methyladenine] | prevented prion degradation | – | – | – | – | – | – | – | – | –
Fc1ccc(Nc2nc(N/N=C/c3ccc4c(c3)OCO4)nc(N3CCOCC3)n2)cc1 [Pac 2, 1,3-benzodioxole-5-carbaldehyde [4-[(4-fluorophenyl)amino]-6-(4-morpholinyl)-1,3,5-triazin-2-yl]hydrazine] | – | suppressed the growth of HeLaPKRkd cells more effectively than did Pac 1 | induced lysosomal exocytosis | destroyed MVBs/exosomes | No reduction of expression | normal | no significant changes in any major organs | No reduction | suppressed more effectively by Pac 2 | not sensitive
